According to patent US20030186997A1, “2,5-Dihydro-pyrazolo[3,4-d]pyrimidin-4-ones with an anticonsulsive action and methods for producing the same” (priority 2000, published 2003):

Q: Which melting point does the source give for `COc1ccccc1Cn1cnc2n[nH]cc2c1=O` [Compound 7, 5-(2-methoxybenzyl)-2,5-dihydropyrazolo[3,4-d]-pyrimidin-4-one] here?
A: 188 to 189 °C

Q: Which melting point does the source give for `Cc1cc(C)c(Cn2cnc3n[nH]cc3c2=O)c(C)c1` [Compound 9, 5-(2,4,6-trimethylbenzyl)-2,5-dihydropyrazolo[3,4-d]-pyrimidin-4-one] here?
A: 199 to 200 °C

Q: Which melting point does the source give for `O=c1c2c[nH]nc2ncn1Cc1ccccn1` [Compound 10, 5-(2-pyridinylmethyl)-2,5-dihydropyrazolo[3,4-d]-pyrimidin-4-one] here?
A: 224 to 225 °C

Q: For `O=c1c2c[nH]nc2ncn1Cc1cccnc1` [Compound 11, 5-(3-pyridinylmethyl)-2,5-dihydropyrazolo[3,4-d]-pyrimidin-4-one], which melting point is on record?
A: 200 to 201 °C

Q: With `O=c1c2c[nH]nc2ncn1Cc1ccncc1` [Compound 12, 5-(4-pyridinylmethyl)-2,5-dihydropyrazolo[3,4-d]-pyrimidin-4-one] as the molecule, how does the melting point read?
A: 220 to 221 °C

Q: With `Cc1cccc(Cn2cnc3nn(C)cc3c2=O)c1` [Compound 15, 5-(3-methylbenzyl)-2-methyl-2,5-dihydropyrazolo[3,4-d]-pyrimidin-4-one] as the molecule, how does the melting point read?
A: 114 to 117 °C

Q: Which melting point does the source give for `Cc1ccc(Cn2cnc3nn(C)cc3c2=O)cc1` [Compound 16, 5-(4-methylbenzyl)-2-methyl-2,5-dihydropyrazolo[3,4-d]-pyrimidin-4-one] here?
A: 224 to 226 °C

Q: Which melting point does the source give for `Cn1cc2c(=O)n(Cc3ccccc3Cl)cnc2n1` [Compound 18, 5-(2-chlorobenzyl)-2-methyl-2,5-dihydropyrazolo[3,4-d]-pyrimidin-4-one] here?
A: 205 to 206 °C

Q: Which melting point does the source give for `Cn1cc2c(=O)n(Cc3ccccc3C(F)(F)F)cnc2n1` [Compound 20, 5-(2-trifluoromethylbenzyl)-2-methyl-2,5-dihydropyrazolo[3,4-d]pyrimidin-4-one] here?
A: 215 to 217 °C

Q: With `Cn1cc2c(=O)n(Cc3ccc(C(F)(F)F)cc3)cnc2n1` [Compound 22, 5-(4-trifluoromethylbenzyl)-2-methyl-2,5-dihydropyrazolo[3,4-d]pyrimidin-4-one] as the molecule, how does the melting point read?
A: 211 to 212 °C

Q: For `Cn1cc2c(=O)n(Cc3c(F)cccc3Cl)cnc2n1` [Compound 23, 5-(2-chloro-6-fluorobenzyl)-2-methyl-2,5-dihydropyrazolo[3,4-d]pyrimidin-4-one], which melting point is on record?
A: 216 to 218 °C

Q: With `Cn1cc2c(=O)n(Cc3ccccc3-c3ccccc3)cnc2n1` [Compound 24, 5-(2-phenylbenzyl)-2-methyl-2,5-dihydropyrazolo[3,4-d]-pyrimidin-4-one] as the molecule, how does the melting point read?
A: 189 to 191 °C

Q: For `Cn1cc2c(=O)n(Cc3c(Cl)cccc3Cl)cnc2n1` [Compound 25, 5-(2,6-dichlorobenzyl)-2-methyl-2,5-dihydro-pyrazolo[3,4-d]pyrimidin-4-one], which melting point is on record?
A: 200 to 202 °C

Q: With `Cn1cc2c(=O)n(Cc3ccccc3[N+](=O)[O-])cnc2n1` [Compound 26, 5-(2-nitrobenzyl)-2-methyl-2,5-dihydropyrazolo[3,4-d]-pyrimidin-4-one] as the molecule, how does the melting point read?
A: 220 to 222 °C

Q: Which melting point does the source give for `Cn1cc2c(=O)n(Cc3ccc(Cl)cc3)cnc2n1` [Compound 27, 5-(4-chlorobenzyl)-2-methyl-2,5-dihydropyrazolo[3,4-d]-pyrimidin-4-one] here?
A: 209 to 210 °C

Q: For `Cn1cc2c(=O)n(Cc3ccc(Cl)cc3Cl)cnc2n1` [Compound 28, 5-(2,4-dichlorobenzyl)-2-methyl-2,5-dihydropyrazolo[3,4-d]pyrimidin-4-one], which melting point is on record?
A: 218 to 219 °C

Q: For `Cn1cc2c(=O)n(Cc3ccccc3I)cnc2n1` [Compound 29, 5-(2-iodobenzyl)-2-methyl-2,5-dihydropyrazolo[3,4-d]-pyrimidin-4-one], which melting point is on record?
A: 187 to 190 °C

Q: Which melting point does the source give for `Cn1cc2c(=O)n(Cc3ccccc3C#N)cnc2n1` [Compound 30, 5-(2-cyanobenzyl)-2-methyl-2,5-dihydropyrazolo[3,4-d]-pyrimidin-4-one] here?
A: 198 to 199 °C
